Source: US20150368692A1, “ANALYSIS OF THE ESTERIFICATION LEVEL OF CEREBROSTEROL AS A TOOL FOR DIAGNOSIS AND/OR PROGNOSIS OF NEURODEGENERATION” (INBIOS S.R.L., priority 2013, published 2015)

Assays:
[1] = test system: SH-SY5Y neuronal cells (neuroblastoma line), differentiated with retinoic acid; assay: Survival of differentiated SH-SY5Y neuronal cells (Crystal Violet staining, absorbance at 595 nm); type: cell-based, human; settings: for cells survived after incubation: 5 h at 37° C./5% CO2 in DMEM and 0.5% HSA, then 16 h in fresh medium
Protocol: FIG. 2. Box A. Cells from the SH-SY5Y cell line were differentiated by incubation with 10 μM of retinoic acid in DMEM containing 0.5% foetal bovine serum, 1% Pen-Strep, 1% L-glutamine, 1% of a mixture of factors known as “N2 medium supplement”, essentially in accordance with a published procedure. The incubation was performed for 3 days at 37° C. in an atmosphere containing 5% CO2 (37° C./5% CO2). 7×10^3 cells were laid in each well of a microplate and then challenged with different concentrations of 24(S)OH—CNE and finally analysed in order to evaluate the survival of the cells, as described in Example 1. Each sample was analysed in three separate experiments. The data are expressed as means±SD (SD=standard deviation). Box B. 20 μM^3H-24(S)OH—CNE (300,000 dpm/mL) was incubated with 250 ng/mL purified LCAT and proteoliposomes containing 2 μM ApoA-I and 266 μM phosphatidylcholine (ApoA-I/PC) in DMEM with 0.5% HSA for various periods of time (from 1 to 6 h) at 37° C./5% CO2. After incubation, the esterified and non-esterified forms of oxysterol were extracted and analysed as described in Example 1. The level of esterification is indicated in terms of percentage of ^3H-24(S)OH-CE. Each sample was analysed in three separate experiments. The data are expressed as means±SD. Box C. Differentiated cells, as in the key of box A, were challenged with 20 μM ^3H-24(S)OH—CNE (300,000 dpm/mL) previously treated or untreated, as described for box B, with LCAT and ApoA-I/PC for 5 h. […] The culture medium was analysed in order to measure any unincorporated radioactive material, whereas the lysate was analysed in order to measure any incorporated radioactive material (expressed as % of the sum of incorporated radioactive material plus unincorporated radioactive material). […] Each sample was analysed in three separate experiments. The data are expressed as means±SD.
FIG. 3. […] Cellular survival after 5 h of incubation at 37° C./5% CO2, was evaluated as described in Example 1. Each sample was analysed in three separate experiments. The data are expressed as means±SD. […]

LCAT [2] = molecular target: T1, LCAT (Homo sapiens, UniProt P04180); assay: Activity of LCAT in esterifying 3H-24(S)OH-CNE after oxidative treatment of the enzyme; type: biochemical; settings: 1 mM SIN-1 as oxidant, 20 min pre-incubation, stopped with antioxidant mixture; 2 μM ApoA-I/266 μM phosphatidylcholine; control 19.11±0.49; P=2.4×10^−3
T1 sequence (P04180 25-440): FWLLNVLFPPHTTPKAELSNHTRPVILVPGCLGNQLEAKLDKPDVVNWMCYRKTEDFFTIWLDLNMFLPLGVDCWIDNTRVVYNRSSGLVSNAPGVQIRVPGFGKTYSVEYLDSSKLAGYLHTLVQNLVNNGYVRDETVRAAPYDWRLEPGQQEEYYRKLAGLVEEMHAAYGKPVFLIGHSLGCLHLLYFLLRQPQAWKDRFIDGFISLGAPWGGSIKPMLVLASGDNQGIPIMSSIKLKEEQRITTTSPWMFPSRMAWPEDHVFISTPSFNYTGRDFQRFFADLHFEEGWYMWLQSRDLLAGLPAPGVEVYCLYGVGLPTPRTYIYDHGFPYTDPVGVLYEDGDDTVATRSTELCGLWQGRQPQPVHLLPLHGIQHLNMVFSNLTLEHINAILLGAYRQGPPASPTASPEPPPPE
Protocol: FIG. 5. An outline of the process to which three samples have been subjected is shown at the top. At the bottom, the components of each sample are shown in a table. […] Purified LCAT (250 ng/mL) was pre-incubated and added to the culture medium for cellular incubation (containing ApoA-I/PC) as indicated in the table at the bottom. 1 mM Asc was used to separate the pre-incubation from the incubation in the processes to which the samples were subjected. Each sample was analysed in three separate experiments. The data, expressed as means±SD, were analysed using the Graph Pad Prism 3 program (Graph Pad Software; San Diego, Calif., USA) in order to determine the significance of the difference of B from A and C (P=10^−5).
The purified enzyme LCAT was treated with an oxidative stress system and was then incubated with 24(S)OH—CNE in order to evaluate the efficiency of esterification of this oxysterol. […] The measurement of the absorbance of ABTS^[…]+ (at 414 nm) […], at 30° C., oxidative species which effectively oxidise ABTS and that the addition of 1 mM Asc to the mixture prevents or blocks oxidation of the target. […]

[3] = test system: SH-SY5Y neuronal cells (neuroblastoma line), differentiated with retinoic acid; assay: Incorporation of 3H-24(S)OH-CNE in differentiated SH-SY5Y cells and its esterification in the cells; type: cell-based, human; settings: 4 h of incubation; for 3H-24(S)OH-CNE incorporated in the cultured cells: 20 μM
Protocol: FIG. 2. Box A. Cells from the SH-SY5Y cell line were differentiated by incubation with 10 μM of retinoic acid in DMEM containing 0.5% foetal bovine serum, 1% Pen-Strep, 1% L-glutamine, 1% of a mixture of factors known as “N2 medium supplement”, essentially in accordance with a published procedure. The incubation was performed for 3 days at 37° C. in an atmosphere containing 5% CO2 (37° C./5% CO2). 7×10^3 cells were laid in each well of a microplate and then challenged with different concentrations of 24(S)OH—CNE and finally analysed in order to evaluate the survival of the cells, as described in Example 1. Each sample was analysed in three separate experiments. The data are expressed as means±SD (SD=standard deviation). Box B. 20 μM^3H-24(S)OH—CNE (300,000 dpm/mL) was incubated with 250 ng/mL purified LCAT and proteoliposomes containing 2 μM ApoA-I and 266 μM phosphatidylcholine (ApoA-I/PC) in DMEM with 0.5% HSA for various periods of time (from 1 to 6 h) at 37° C./5% CO2. After incubation, the esterified and non-esterified forms of oxysterol were extracted and analysed as described in Example 1. The level of esterification is indicated in terms of percentage of ^3H-24(S)OH-CE. Each sample was analysed in three separate experiments. The data are expressed as means±SD. Box C. Differentiated cells, as in the key of box A, were challenged with 20 μM ^3H-24(S)OH—CNE (300,000 dpm/mL) previously treated or untreated, as described for box B, with LCAT and ApoA-I/PC for 5 h. After various incubation times (from 1 to 6 h), the cells were separated from the culture medium and lysed. The culture medium was analysed in order to measure any unincorporated radioactive material, whereas the lysate was analysed in order to measure any incorporated radioactive material (expressed as % of the sum of incorporated radioactive material plus unincorporated radioactive material). […] Each sample was analysed in three separate experiments. The data are expressed as means±SD.
In Step 1B, 20 μM of ^3H-24(S)OH—CNE (300,000 dpm/mL) was pre-incubated in culture medium (DMEM containing 0.5% HSA) in the presence or absence of 250 ng/mL LCAT, purified in accordance with a published procedure, and proteoliposomes containing ApoA-I and phosphatidylcholine (ApoA-I/PC), prepared in accordance with a published procedure omitting cholesterol. […] In particular, the amount of esterified ^3H-24(S)OH—CNE (that is to say ^3H-24(S)OH-CE) was measured as detailed hereinafter. […] The stationary phase regions harbouring ^3H-24(S)OH-CE (Rf=0.70-0.75) and ^3H-24(S)OH—CNE (Rf=0.25-0.35) were separately removed and then analysed for the radioactivity content thereof by liquid scintillation using the Packard TriCarb 2100TR counter (Global Medical Instrumentation, Ramsey, Mich., USA). […]

LCAT [4] = molecular target: T1, LCAT; assay: Esterification of 3H-24(S)OH-CNE by purified LCAT with ApoA-I/PC proteoliposomes (TLC, liquid scintillation); type: biochemical; settings: 20 μM substrate, 250 ng/mL LCAT, proteoliposomes 2 μM ApoA-I/266 μM phosphatidylcholine, 5 h pre-incubation at 37° C./5% CO2
Protocol: FIG. 2. Box A. Cells from the SH-SY5Y cell line were differentiated by incubation with 10 μM of retinoic acid in DMEM containing 0.5% foetal bovine serum, 1% Pen-Strep, 1% L-glutamine, 1% of a mixture of factors known as “N2 medium supplement”, essentially in accordance with a published procedure. The incubation was performed for 3 days at 37° C. in an atmosphere containing 5% CO2 (37° C./5% CO2). 7×10^3 cells were laid in each well of a microplate and then challenged with different concentrations of 24(S)OH—CNE and finally analysed in order to evaluate the survival of the cells, as described in Example 1. Each sample was analysed in three separate experiments. The data are expressed as means±SD (SD=standard deviation). […] After incubation, the esterified and non-esterified forms of oxysterol were extracted and analysed as described in Example 1. […] Each sample was analysed in three separate experiments. The data are expressed as means±SD. […] The culture medium was analysed in order to measure any unincorporated radioactive material, whereas the lysate was analysed in order to measure any incorporated radioactive material (expressed as % of the sum of incorporated radioactive material plus unincorporated radioactive material). […] Each sample was analysed in three separate experiments. The data are expressed as means±SD. […]

[5] = medium pre-incubated in the presence of LCAT and proteoliposomes
[6] = medium pre-incubated without LCAT and proteoliposomes

## CC(C)[C@@H](O)CC[C@@H](C)[C@H]1CC[C@H]2[C@@H]3CC=C4C[C@@H](O)CC[C@]4(C)[C@H]3CC[C@]12C [24(S)OH—CNE, cerebrosterol]
[1]; 10 μM 24(S)OH-CNE
  cells survived after incubation: 58%
[1]; 20 μM 24(S)OH-CNE
  cells survived after incubation: 43%

## [NH-]c1c[n+](N2CCOCC2)no1 [SIN-1, 3-morpholino-sidnonimine]
LCAT [2]
  LCAT activity of esterification of 24(S)OH-CNE (mean±SD): 12.77 ± 0.78 nmol/h/mL

## [3H]C(C([3H])[C@@H](C)[C@H]1CC[C@H]2[C@@H]3CC=C4C[C@@H](O)CC[C@]4(C)[C@H]3CC[C@]12C)[C@H](O)C(C)C (stereo partly drawn) [^3H-24(S)OH—CNE]
[3]; [5]
  percentage of 3H-24(S)OH-CE in the cells: approximately 50%
  3H-24(S)OH-CNE incorporated in the cultured cells: 6%
[3]; [6]
  percentage of 3H-24(S)OH-CE in the cells: approximately 60%
  3H-24(S)OH-CNE incorporated in the cultured cells: 14%
LCAT [4]
  3H-24(S)OH-CNE found esterified by LCAT (mean±SD): 49.3±2.8%

B1: LCAT: lecithin-cholesterol acyltransferase, E.C. 2.3.1.43; purified enzyme, used at 250 ng/mL (protein, UniProt P04180 25-440, looked up)
Phosphatidylcholine-sterol …: T1 sequence (P04180 25-440)
[1]; 20 μM 24(S)OH-CNE pre-incubated 5 h with LCAT and proteoliposomes, cells 5 h, then 16 h fresh medium, versus control treatment without LCAT
  effect of LCAT treatment of the culture medium on the toxic effect of 24(S)OH-CNE on the cells: significantly reduced the toxic effect
